Laboratory results reported in ChEMBL document CHEMBL1201862, “PubChem BioAssay data set” (2004).
Activity calls are given as the source filed them. For most assays here, no stated cut-off is given here; in the data, actives have a measured EC50 and inactives only a lower limit.

Columns and labels:
[1] = Trypanosoma cruzi growth suppression in host cells – NIH3T3 host cells, beta-gal luminescence, confirmation (AID 2044); format: functional, cell-based;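 further: intracellular parasites grown in NIH/3T3 mouse fibroblasts as host cells; luminescent beta-galactosidase reporter signal from transgenic T. cruzi replicating inside host cells; inhibitors lower the luminescence signal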
[2] = HPDE-C7 pancreatic duct cell viability loss – fluorescence, HTS (AID 430); format: functional, cell-based; conditions: Homo sapiens
[3] = microbe, parasite or virus in culture; format: functional; conditions: Mycobacterium tuberculosis
[4] = NIH3T3 cell viability loss – ATP luminescence, mouse fibroblasts, counter-screen, dose response (AID 2010); format: functional, cell-based;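 further: cells exposed to compound for about 90 hours before reading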
[5] = viability loss of HPDE-C7K cells – cell-based, fluorescence, HTS, primary screen (AID 431); format: functional; conditions: Homo sapiens
[6] = Luminescence Cell-Based Dose Retest to Confirm Inhibitors of Cancer Stem Cells. [Related pubchem assays (depositor defined):AID2717, AID2721]; format: functional; conditions: Homo sapiens
[7] = tested on: Streptococcus sp. 'group A'; assay: Streptococcus pyogenes SK(-)GAS viability under kanamycin – luminescence, BacTiterGlo, confirmation, counter-screen for streptokinase expression inhibitor project, dose response (AID 1900); format: functional, organism-based
Streptococcus = assay: GAS UMAA2166 growth inhibition – luminescence, BacTiterGlo, counter-screen for streptokinase expression inhibitor project, dose response (AID 1915); format: functional, organism-based;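 further: potency for reduction of bacterial viability or growth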
Prothrombin = Prothrombin (Homo sapiens, UniProt P00734); assay: Thrombin 1536 HTS Dose Response Confirmation. [Related pubchem assays: 1046 (Thrombin 1536 HTS; hits were confirmed in this assay)]; format: functional
[8] = molecular target: T1, Heat shock factor protein 1 (Mus musculus, UniProt P38532); assay: enhancement of HSF1-driven luciferase signal – cell-based, NIH3T3, luminescence, dose retest, confirmation (AID 435004); format: functional;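 further: stress induced by proteasome inhibitor MG132 added 30 min after compound; luciferase reporter driven by HSF1 response element in NIH3T3 cells; actives raise luminescence as potentiators of the MG132 stress response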
T1 sequence (P38532 whole entry): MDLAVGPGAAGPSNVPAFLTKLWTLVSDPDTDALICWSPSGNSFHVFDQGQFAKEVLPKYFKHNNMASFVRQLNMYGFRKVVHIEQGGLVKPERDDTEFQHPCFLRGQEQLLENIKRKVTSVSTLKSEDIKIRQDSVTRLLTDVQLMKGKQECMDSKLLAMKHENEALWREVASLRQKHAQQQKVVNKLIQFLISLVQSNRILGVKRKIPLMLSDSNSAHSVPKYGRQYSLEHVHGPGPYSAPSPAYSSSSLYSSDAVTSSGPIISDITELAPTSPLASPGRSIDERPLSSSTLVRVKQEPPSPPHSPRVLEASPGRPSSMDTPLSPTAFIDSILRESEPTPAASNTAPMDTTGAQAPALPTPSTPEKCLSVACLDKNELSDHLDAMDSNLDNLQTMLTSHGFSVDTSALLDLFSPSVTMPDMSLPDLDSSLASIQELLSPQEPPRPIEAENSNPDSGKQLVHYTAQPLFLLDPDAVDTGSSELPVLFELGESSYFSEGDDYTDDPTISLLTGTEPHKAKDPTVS

[9] = reduction of Shn3 3'UTR-driven luciferase in osteoblasts – cell-based, Clone20 osteoblasts, firefly luciferase, cherry-picked, dose response (AID 624132); format: functional;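 further: firefly luciferase luminescence from reporter carrying the Shn3 3'UTR in osteoblasts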
[10] = loss of viability in HepG2 cells – cell-based, CellTiter-Glo, cherry-picked, cytotoxicity control for Shn3 inhibitor project, dose response (AID 624134); format: functional
[11] = non-specific 3'UTR reporter inhibition in Clone20-Shn3RL – cell-based, Renilla luciferase, cherry-picked, counter-screen for Shn3 inhibitor project, dose response (AID 624133); format: functional
Leucine aminopeptidase = molecular target: T2, Leucine aminopeptidase (Plasmodium falciparum 3D7, UniProt Q8IL11); assay: P. falciparum M17LAP inhibitors, primary screen, biochemical, fluorogenic H-Leu-NHMec substrate, 1536-well (AID 1619); format: functional
T2 sequence (Q8IL11 whole entry): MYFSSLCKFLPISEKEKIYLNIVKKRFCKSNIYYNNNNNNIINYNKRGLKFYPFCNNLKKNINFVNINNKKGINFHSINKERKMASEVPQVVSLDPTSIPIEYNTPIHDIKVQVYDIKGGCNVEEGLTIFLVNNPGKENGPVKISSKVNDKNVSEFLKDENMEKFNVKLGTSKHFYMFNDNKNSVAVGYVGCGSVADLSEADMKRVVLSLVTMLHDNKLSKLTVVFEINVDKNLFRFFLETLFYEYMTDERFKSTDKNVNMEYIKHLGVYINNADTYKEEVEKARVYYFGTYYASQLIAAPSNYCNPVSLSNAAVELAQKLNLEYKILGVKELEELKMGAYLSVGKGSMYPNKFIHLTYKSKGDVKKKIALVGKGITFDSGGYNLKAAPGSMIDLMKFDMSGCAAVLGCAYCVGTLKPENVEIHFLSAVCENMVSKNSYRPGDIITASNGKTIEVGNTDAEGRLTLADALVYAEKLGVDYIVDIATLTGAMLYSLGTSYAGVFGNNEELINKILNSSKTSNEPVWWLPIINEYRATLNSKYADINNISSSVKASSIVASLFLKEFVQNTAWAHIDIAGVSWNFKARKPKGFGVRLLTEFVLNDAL

[12] = NIH-3T3 fibroblast cytotoxicity, dose response, cytotoxicity control, cell-based, fluorescence, Alamar Blue, secondary assay (AID 2327); format: functional;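 further: NIH-3T3 mouse fibroblasts cultured with fluconazole at 8 µg/mL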
[13] = fluconazole-exposed Candida albicans growth modulators – fluorescence, retest, confirmation (AID 2467); format: functional, cell-based

Question: With `COc1ccccc1C(=O)N=C(NC(=O)c1ccccc1OC)Nc1nc2ccccc2o1` as the compound, how does the EC50 [1] read?
Answer: The EC50 was 1.38 µM (active).

Question: And the EC50 [2]?
Answer: The EC50 was 4.28 µM (active).

Question: What about the CC50 [3] of the same compound?
Answer: The CC50 was 14 µM (active).

Question: What about the EC50 [4] of the same compound?
Answer: The EC50 was > 60 µM (not active).

Question: And the EC50 [5]?
Answer: Its EC50 is 5.05 µM (active).

Question: With `CCCOC(=O)c1ccc(Oc2c(C)n[nH]c2-c2ccc(OCC)cc2O)cc1` as the compound, how does the EC50 [2] read?
Answer: The EC50 was 11.9 µM (active).

Question: And the AC50 [6]?
Answer: Its AC50 is 3.66 µM (active).

Question: And the EC50 [7]?
Answer: The EC50 was 11.1 µM (active).

Question: And the EC50 [5]?
Answer: The EC50 was 7.31 µM (active).

Question: And the EC50 (Streptococcus)?
Answer: Its EC50 is > 150 µM (not active).

Question: For `O=C(NC1CCCCC1)C1CCN(c2nnnn2-c2ccccc2)CC1`, which IC50 (Prothrombin) is on record?
Answer: The IC50 was > 50 µM (not active).

Question: With `Cc1cccc(N2CCN(C(=O)CSCc3c(C)noc3C)CC2)c1C` as the compound, how does the EC50 [8] read?
Answer: Its EC50 is 243 µM (active).

Question: What about the AC50 [9] of the same compound?
Answer: The AC50 was 2.41 µM (active).

Question: And the AC50 [10]?
Answer: Its AC50 is 36.3 µM (active).

Question: And the AC50 [11]?
Answer: The AC50 was 3.48 µM (active).

Question: Which results are given for `Cc1cc(C)n(S(=O)(=O)/C=C/c2ccccc2)n1`?
Answer: EC50 [8]: 12.1 µM (active); EC50 [2]: 9.1 µM (active); EC50 [5]: 9.65 µM (active)

Question: With `COCCCNC(=O)/C(=C\c1cccn1C)NC(=O)c1cccs1` as the compound, how does the IC50 (Prothrombin) read?
Answer: The IC50 was > 50 µM (inconclusive).

Question: Which IC50 (Leucine aminopeptidase) does the source give for `COc1ccc(NC(=O)C(CC(=O)O)Cc2ccccc2)cc1` (stereo unspecified) here?
Answer: The IC50 was 28.1 µM (active).

Question: What does the source list for `Cc1ccc(C2C3CSCC=C3C(C#N)=C(N)C2(C#N)C#N)cc1` (stereo unspecified)?
Answer: EC50 [2]: 17.4 µM (active); EC50 [12]: > 160 µM (inactive); EC50 [13]: > 38 µM (not active); EC50 [5]: > 20 µM (not active)

Question: Which IC50 (Leucine aminopeptidase) does the source give for `COc1ccc(OC)c(S(=O)(=O)n2nnc3cc(Cl)ccc32)c1` here?
Answer: Its IC50 is 103 µM (active).

Question: Which IC50 (Prothrombin) does the source give for `O=C(N/N=C/c1ccccc1[N+](=O)[O-])c1ccc2[nH]cnc2c1` here?
Answer: Its IC50 is 2.34 µM (active).
